Results from article PMC10253536, “Bradykinin and Neurotensin Analogues as Potential Compounds in Colon Cancer Therapy” (International Journal of Molecular Sciences, 2023).
Non-standard residues stand in square brackets, D forms with d. Residues, ends and D or L forms follow the SMILES beside them. No end group written: not given here. *: point of attachment. Acetyl(1-adamantyl) = O=C(CC12CC3CC(CC(C3)C1)C2)*; Hyp = O=C(O)[C@@H]1C[C@@H](O)CN1; 2Thi = N[C@@H](Cc1cccs1)C(=O)O; Ac6c = NC1(C(=O)O)CCCCC1

How the values were obtained:
[1] = Stability test in human plasma; details: for stability in human plasma (in words): 0.4 mg/mL, 37 °C, up to 24 h, TCA or formic acid/urea procedure depending on peptide, RP-HPLC 223 nm, at least triplicates
Description: To check the stability of the studied peptides in human plasma, 24 h incubation of peptides in the appropriate medium was performed. For the studies, two methods were used. The first one involved the presence of trichloroacetic acid (TCA) as a protein precipitating reagent, while the second one involved a mixture of formic acid and urea. […] The procedure with the mixture of the formic acid and urea was used for BK-3, BK-4, BK-6, and BK-8.
• A. TCA procedure for peptides: BK, BK-1, BK-2, BK-5, BK-7, NT, and NT analogues.
Peptide stability tests were performed according to a TCA stability assay based on the method used by Nguyen et al.. Peptides were dissolved in water, mixed with 25% human plasma to a final concentration of 0.4 mg/mL, and incubated at 37 °C with agitation (300 rpm, Thermomixer, Eppendorf AG, Hamburg, Germany). After 0, 1, 2, 3, 4, and 24 h, […] of the solution was taken and mixed with 15% TCA to obtain a final concentration of 3% (v/v). The samples were incubated in ice for 10 min and centrifuged for 10 min (12,000 rpm, Microfuge 16, Beckman Coulter, Brea, CA, USA).
In the second method, peptides were dissolved in water, mixed with 25% human plasma to a final concentration 0.4 mg/mL, and incubated at 37 °C with agitation (300 rpm, Thermomixer, Eppendorf AG, Hamburg, Germany). After 0, 1, 2, 3, 4, and 24 h, […] of the solution was taken and mixed with 25 μL of a mixture of 1050 µL 6 M urea, 330 µL formic acid, and 120 µL water to a final peptide concentration of 0.4 mg/mL. The samples were incubated in ice for 10 min and centrifuged for 10 min (12,000 rpm, Microfuge 16, Beckman Coulter, Brea, CA, USA). Supernatants were analyzed by RP-HPLC on column Kinetex (2.6 µm, XB-C18 100 Å 150 × 2.1 mm) (Phenomenex, Torrance, CA, USA) using a linear gradient of acetonitrile (1–80% over 20 min) with detection at 223 nm. Peptides were quantified by their peak areas relative to the initial peak areas (0 min). All stability tests were performed at least in triplicates. As control samples, peptides dissolved only in water under the same conditions were used.

HCT116 cells [2] = experiment: Cell death assay (7-AAD, flow cytometry), spherical HCT116 cells; assay type: cell-based, human; details: spherical HCT116, 500 µg/mL, 24 h, vs untreated control, n = 4
Text: We evaluated the percentage of nonviable cells of HTC116 following analogue treatment via a flow cytometric assay using 7-Amino Actinomycin D (7-AAD) dye according to the procedure presented in the Materials and Methods Section 4.6. This dye is excluded by living cells but binds selectively to the DNA of damaged permeabilized cells. We learned that the number of 7AAD-positive cells changed according to different scenarios in CRC cells cultured in adherent and spherical forms following the incubation with BK and NT analogues (Figure 6).
Figure 6 Analysis of the viability of colorectal cancer HCT116 cells expanded in spherical (A,B) or adherent (C,D) form and treated with bradykinin (A,C) and neurotensin analogues (B,D) (500 µg/mL) for 24 h. Cells were incubated with 7-AAD and analyzed by flow cytometry. The y-axis presents the fold increase in the frequency of 7-AAD+ cells compared to untreated control cells. (* p < 0.05 vs. untreated control cells; • p < 0.05 vs. BK/NT-treated cells; ANOVA Kruskal–Wallis test, n = 4). Data presented as bars and whiskers representing the median with min–max values).
Following BK and NT analogue treatment of HCT116 cells, we evaluated the proportion of dead cells in our samples. For this purpose, we used a 7AAD Via Probe (BD Biosciences, San Jose, CA, USA). […]

HCT116 cells [3] = experiment: Flow cytometry phenotype (CD133, CD44, CD29), HCT116 colonospheres; assay type: cell-based, human; details: spherical HCT116, 500 µg/mL, 24 h, vs untreated control, n = 5
Description: Figure 4 The phenotype of the colorectal cancer HCT116 cell line expanded in the form of colonospheres and treated with (A,C,E) bradykinin and (B,D,F) neurotensin analogues (500 µg/mL) for 24 h. The data are presented as fold change of frequency of cells with given phenotype in relation to untreated control cells. The control value is set at a level of 1. Bars and whiskers represent the median with min–max values (* p < 0.05 vs. untreated control cells; • p < 0.05 vs. BK treated cells; ANOVA Kruskal–Wallis test, n = 5).
Similarly as for the adherent HTC116 cells, we also tested the spherical form with respect to the presence of CD29 and CD44 integrins on their surface but not only in CD133+ (Figure 4C,D) but also in CD133 (Figure 4E,F). In these studies, the count of CD133+, CD44+, and CD29+ cells was not affected in spherical culture, while at the same time, we observed that CSCs in colonospheres were more likely to change the level of these markers within the CD133-negative population. […] In contrast, the analogues BK-4, BK-6, and BK-8 decreased the number of these cells.
HCT116 in both adherent (5 × 10^4 cells/mL in 24-well plate) and spherical forms (8 × 10^5/mL cells in 24-well ultra-low attachment plates) were maintained in appropriate medium. […]

Compound: N=C(N)NCCC[C@@H](N)C(=O)N[C@@H](CCCNC(=N)N)C(=O)N1CCC[C@H]1C(=O)N1C[C@H](O)C[C@H]1C(=O)NCC(=O)N[C@@H](Cc1cccs1)C(=O)N[C@@H](CO)C(=O)N[C@H](Cc1ccccc1)C(=O)NC1(C(=O)N[C@@H](CCCNC(=N)N)C(=O)O)CCCC1 [BK-2] (HELM PEPTIDE1{[dR].R.P.[Hyp].G.[O=C([C@H](Cc1cccs1)N[*:1])[*:2]].S.[dF].[O=C(C1(N[*:1])CCCC1)[*:2]].R}$$$$V2.0)
- stability in human plasma (in words) ([1]; 25% human plasma): most stable

Compound: N=C(N)NCCC[C@H](NC(=O)[C@H](Cc1cccs1)NC(=O)C1(NC(=O)[C@H](CO)NC(=O)[C@H](Cc2cccs2)NC(=O)CNC(=O)[C@@H]2C[C@@H](O)CN2C(=O)[C@@H]2CCCN2C(=O)[C@H](CCCNC(=N)N)NC(=O)[C@@H](CCCNC(=N)N)NC(=O)CC23CC4CC(CC(C4)C2)C3)CCCCC1)C(=O)O [BK-3]
- stability in human plasma (in words) ([1]; 25% human plasma): least stable
- remaining at 24 h, 0.4 mg/mL ([1]; human, 25% human plasma): ~40%

Compound: N=C(N)NCCC[C@H](NC(=O)C1(NC(=O)[C@@H](Cc2ccccc2)NC(=O)[C@H](CO)NC(=O)[C@H](Cc2cccs2)NC(=O)CNC(=O)[C@@H]2C[C@@H](O)CN2C(=O)[C@@H]2CCCN2C(=O)[C@H](CCCNC(=N)N)NC(=O)[C@@H](CCCNC(=N)N)NC(=O)CC23CC4CC(CC(C4)C2)C3)CCCCC1)C(=O)O [BK-4] ({Acetyl(1-adamantyl)}-[dR]RP[Hyp]G[2Thi]S[dF][Ac6c]R-OH)
- stability in human plasma (in words) ([1]; 25% human plasma): most stable

Compound: N=C(N)NCCC[C@@H](N)C(=O)N[C@@H](CCCNC(=N)N)C(=O)N1CCC[C@H]1C(=O)N1C[C@H](O)C[C@H]1C(=O)NCC(=O)N[C@@H](Cc1cccs1)C(=O)N[C@@H](CO)C(=O)N[C@H](Cc1ccccc1)C(=O)N1CCCC[C@H]1C(=O)N[C@@H](CCCNC(=N)N)C(=O)O [BK-5] (HELM PEPTIDE1{[dR].R.P.[Hyp].G.[O=C([C@H](Cc1cccs1)N[*:1])[*:2]].S.[dF].[O=C([C@@H]1CCCCN1[*:1])[*:2]].R}$$$$V2.0)
- stability in human plasma (in words) ([1]; 25% human plasma): most stable

Compound: N=C(N)NCCC[C@H](NC(=O)[C@H](Cc1cccs1)NC(=O)[C@H]1CCCCN1C(=O)[C@H](CO)NC(=O)[C@H](Cc1cccs1)NC(=O)CNC(=O)[C@@H]1C[C@@H](O)CN1C(=O)[C@@H]1CCCN1C(=O)[C@H](CCCNC(=N)N)NC(=O)[C@@H](CCCNC(=N)N)NC(=O)CC12CC3CC(CC(C3)C1)C2)C(=O)O [BK-8]
- remaining at 24 h, 0.4 mg/mL ([1]; human, 25% human plasma): 70%

Compound: CC(C)C[C@H](NC(=O)[C@@H](NC(=O)[C@H](Cc1ccc(O)cc1)NC(=O)[C@@H]1CCCN1C(=O)[C@H](CCCCN)NC(=O)[C@H](CCCCN)NC(=O)CNC(=O)[C@H](CCC(=O)O)NC(=O)[C@@H]1CCCN1)C(C)(C)C)C(=O)O [NT-14] (HELM PEPTIDE1{P.E.G.K.K.P.Y.[CC(C)(C)[C@H](N[*:1])C(=O)[*:2]].L}$$$$V2.0)
- stability in human plasma (in words) ([1]; 25% human plasma): better stability than the native peptide

Compound: Neurotensin [NT]
- number of nonviable 7AAD+ cells, spherical form (HCT116 cells [2]): prominently increased
- CD133-CD44+CD29+ cell count in colonospheres (HCT116 cells [3]): significantly increasing

Compound: RPPGFSPFR [BK, Bradykinin]
- remaining at 4 h, 0.4 mg/mL ([1]; human, plasma): 96%
- remaining at 24 h, 0.4 mg/mL ([1]; human, plasma): ~50%
